This note sets out measurements from paper PMC4393269, “Carvacrol Codrugs: A New Approach in the Antimicrobial Plan” (PLoS ONE, 2015).

Broadly, the MIC is the least concentration at which growth counts as inhibited. Broadly, the MBC is the smallest concentration meeting the test's criterion for killing. What is called MFC is the lowest tested concentration that kills the fungus rather than only halting it.

The structures appear in SMILES notation. ≈ marks a conversion by molar mass, not a printed value. Structures can show the parent of a compound that is named as a salt.

For data set [1], the system named is E. coli ATCC 8739. The data set can be described thus: Broth microdilution MIC/MBC on planktonic cells. Format: cell-based. Particulars: Escherichia coli, ATCC8739; for MIC: E. coli ATCC 8739, 24 h at 37°C, read-out: MIC; for MBC: E. coli ATCC 8739, read-out: MBC. The protocol:
(§1) Two Gram-positive (S. aureus ATCC 29213 and S. epidermidis ATCC 35984) and two Gram-negative (E. coli ATCC 8739 and P. aeruginosa ATCC 9027) strains, and one fungal strain (C. albicans ATCC 10231) were used for the detection of antibacterial activity of carvacrol, NAC, Ac-Cys(Allyl)-OH, and carvacrol codrugs 1–10. All tested compounds were dissolved in 20% DMSO to prepare the stock solution (100 mg/mL). The final concentration of DMSO in each well appeared to be not toxic for all studied microorganisms, as confirmed by the solvent control test included in the study.
(§2) The effects of carvacrol codrugs 1–10 and reference compounds on planktonic cells were evaluated by Minimum Inhibitory Concentration (MIC) and Minimum Bactericidal Concentration (MBC) determination using the broth microdilution method according to EUCAST guidelines. Bacterial suspensions, grown in Mueller–Hinton Broth (MHB) at logarithmic phase, were incubated on microtiter plates at a concentration of 5 x 10^5 CFU/mL, with several dilutions (0.07–40 mg/mL) for 24 h at 37°C. The MIC was defined as the lowest concentration of substances giving a complete inhibition of visible growth in comparison with a control well, and the MBC was determined as the lowest concentration at which no bacterial growth occurred on Mueller–Hinton Agar plates.
(§3) Data were obtained from at least three independent experiments performed in duplicate. The susceptibility of the bacterial strains against ciprofloxacin was used as an internal standard during MIC determinations.
(In general: Dilution methods test growth across graded concentrations, often in twofold steps.)

The test system of data set [2] is P. aeruginosa ATCC 9027. The data set can be described thus: Broth microdilution MIC/MBC on planktonic cells. Format: cell-based. Particulars: Pseudomonas aeruginosa, ATCC9027; for MIC: P. aeruginosa ATCC 9027, 24 h at 37°C, read-out: MIC; for MBC: P. aeruginosa ATCC 9027, read-out: MBC. The procedure: as §1, §2, §3
Data set [3] deals with S. aureus ATCC 29213. Briefly: Broth microdilution MIC/MBC on planktonic cells. Particulars: Staphylococcus aureus, ATCC29213; for MIC: S. aureus ATCC 29213, 24 h at 37°C, read-out: MIC; for MBC: S. aureus ATCC 29213, read-out: MBC. Format: cell-based. The protocol:
as §1, §2, §3

Data set [4] deals with S. epidermidis ATCC 35984. The data set can be described thus: Broth microdilution MIC/MBC on planktonic cells. The data set is classed as cell-based. Particulars: Staphylococcus epidermidis, ATCC35984; for MIC: S. epidermidis ATCC 35984, 24 h at 37°C, read-out: MIC; for MBC: S. epidermidis ATCC 35984, read-out: MBC. The protocol:
as §1, §2, §3

Data set [5] has as its system C. albicans ATCC 10231. Briefly: Broth microdilution MIC/MFC. Format: cell-based. The following applies: Candida albicans, ATCC10231; for MIC: C. albicans ATCC 10231, 24–48 h at 37°C, read-out: MIC; for MFC: C. albicans ATCC 10231, read-out: MFC. The protocol:
as §1
The MIC detection of C. albicans ATCC 10231 was performed using the broth microdilution method according to EUCAST guidelines in RPMI 1640 plus 2% glucose with a final inoculum of 1–5 x 10^5 CFU/mL for 24–48 h at 37°C. The Minimum Fungicidal Concentration (MFC) was determined as the lowest concentration of substances at which no fungal growth occurred on Sabouraud agar plates.
as §3

For data set [6], the system named is Gram positive and Gram negative tested bacteria. Briefly: Broth microdilution MIC/MBC, range over the bacterial panel. The data set is classed as cell-based. The protocol:
as §1
as §2, with “plates. […]” for “plates.”

Data set [7] has as its system C. albicans ATCC 10231. Briefly: Antibiofilm assay on established biofilm (BIC/BEC). The data set is classed as cell-based. The protocol: (§4) The efficacy on established biofilm was evaluated by determining Biofilm Inhibitory Concentration (BIC) and Biofilm Eradication Concentration (BEC) according to the method described by Johnson et al. with some modifications. Bacterial suspensions, grown in Tryptic soy broth supplemented with 0.5% (v/v) glucose at logarithmic phase, as well as C. albicans grown in RPMI 1640 plus 2% glucose, were incubated on flat-bottomed microtiter plates at a concentration of 5 x 10^5 CFU/mL. After 24 h of incubation at 37°C, the planktonic cells were gently removed and wells were washed with sterile phosphate-buffered saline solution (PBS) pH 7.3 and filled with carvacrol, carvacrol codrug 4, Ac-Cys(Allyl)-OH with dilutions ranging from the MIC values to a maximum concentration of 50 mg/mL. The OD600 was measured at time 0 and after incubation for 24 h at 37°C. The BIC values were determined as the lowest concentrations where no growth occurred in the supernatant fluid, confirmed by no increase in optical density compared with the initial reading. The BEC values were determined as the lowest concentrations at which no bacterial growth occurred on Tryptic soy agar for bacteria and on Sabouraud agar for C. albicans. Data were obtained from at least three independent experiments performed in duplicate.

The subject of data set [8] is E. coli ATCC 8739. Briefly: Antibiofilm assay on established biofilm (BIC/BEC). Format: cell-based. The protocol: as §4
Data set [9] relates to P. aeruginosa ATCC 9027. The data set can be described thus: Antibiofilm assay on established biofilm (BIC/BEC). Format: cell-based. The procedure: as §4
Data set [10] deals with S. aureus ATCC 29213. The data set can be described thus: Antibiofilm assay on established biofilm (BIC/BEC). The data set is classed as cell-based. Particulars: S. aureus ATCC 29213 established biofilm. The procedure:
as §4

Data set [11] concerns S. epidermidis ATCC 35984. Briefly: Antibiofilm assay on established biofilm (BIC/BEC). The data set is classed as cell-based. The protocol: as §4
The next data set is described as follows: Hemolytic activity. The data set is classed as cell-based, human. Particulars: human, human red blood cells (h-RBC), 4% suspension, pH 7.3; 4% h-RBC in PBS, 1 h at 37°C, at the compound's MIC values. The protocol:
(§5) Experimental protocols to study hemolysis on human red cells were approved by Ethics Committee of the University “G. d’Annunzio” Chieti-Pescara. Human red cells were from two volunteers, who signed the informed consent for this study.
(§6) Hemolytic activity of carvacrol codrugs 1–10 was tested against human red blood cells (h-RBC). Fresh human blood, collected with EDTA, was centrifuged at 3000 rpm for 5 min then washed three times with PBS pH 7.3. Red blood cells were diluted to 4% in PBS and incubated with different codrugs concentrations ranging from 25 to 0.05 mg/mL. After 1 h of incubation at 37°C, the suspensions were sedimented by centrifugation and the release of hemoglobin was determined by absorbance measurement at 405 nm and compared with a 0% hemolysis control (PBS) and a 100% hemolysis control (PBS with 1% v/v Triton X-100). The percentage of hemolysis was calculated using the following equation: Hemolysis (%) = [(OD405sample - OD4050% lysis control)/(OD405100% lysis control - OD4050% lysis contro)] X 100

The test system of data set [12] is human red blood cells (h-RBC). The data set can be described thus: Hemolytic activity. The data set is classed as cell-based. The following applies: 4% h-RBC, 1 h at 37°C. The procedure: as §5, §6

Take `C=CCSC[C@H](NC(C)=O)C(=O)O` [Ac-Cys(Allyl)-OH, N-Ac-Cys(Allyl)-OH]: the MIC came out at 2500 µg/mL (≈ 12.3 mM) in the data set on E. coli ATCC 8739 [1]; 10000 µg/mL (≈ 49.2 mM) in the data set on P. aeruginosa ATCC 9027 [2]; 5000 µg/mL (≈ 24.6 mM) in the data set on S. aureus ATCC 29213 [3]; 5000 µg/mL (≈ 24.6 mM) in [4]; 2500 µg/mL (≈ 12.3 mM) in the data set with C. albicans ATCC 10231 [5]. Also, the MBC worked out at 2500 µg/mL (≈ 12.3 mM) in the data set with E. coli ATCC 8739 [1], 10000 µg/mL (≈ 49.2 mM) in the data set with P. aeruginosa ATCC 9027 [2], 5000 µg/mL (≈ 24.6 mM) in the data set with S. aureus ATCC 29213 [3] and 5000 µg/mL (≈ 24.6 mM) in data set [4]. Further, the MFC in the data set with C. albicans ATCC 10231 [5] was 2500 µg/mL (≈ 12.3 mM). Moreover, the “MIC values (range over strains)” value in data set [6] (bacterial strains of Table 1) was 2500 to 10000 µg/mL. Further, the “BEC as multiple of MIC” value with C. albicans ATCC 10231 [7] (C. albicans ATCC 10231) was found to be 2MIC; in the data set with E. coli ATCC 8739 [8] (E. coli ATCC 8739), 8MIC; in the data set on P. aeruginosa ATCC 9027 [9] (P. aeruginosa ATCC 9027), 2MIC; in [11] (S. epidermidis ATCC 35984), 4MIC. The results for the “BIC as multiple of MIC” value (with C. albicans ATCC 10231 [7] (C. albicans ATCC 10231); with E. coli ATCC 8739 [8] (E. coli ATCC 8739); in [11] (S. epidermidis ATCC 35984)) were 2MIC, 2MIC and 4MIC, respectively. For the same molecule, the BEC in the data set with C. albicans ATCC 10231 [7] (C. albicans ATCC 10231 established biofilm) was 5 mg/mL; in the data set with E. coli ATCC 8739 [8] (E. coli ATCC 8739 established biofilm) it was 20 mg/mL; in the data set with P. aeruginosa ATCC 9027 [9] (P. aeruginosa ATCC 9027 established biofilm) it was 20 mg/mL; with S. aureus ATCC 29213 [10], 20 mg/mL; in data set [11] (S. epidermidis ATCC 35984 established biofilm), 20 mg/mL. In addition, the BIC was found to be 5 mg/mL in the data set on C. albicans ATCC 10231 [7] (C. albicans ATCC 10231 established biofilm, 24 h); 5 mg/mL in the data set with E. coli ATCC 8739 [8] (E. coli ATCC 8739 established biofilm, 24 h); 10 mg/mL in the data set with P. aeruginosa ATCC 9027 [9] (P. aeruginosa ATCC 9027 established biofilm, 24 h); 10 mg/mL with S. aureus ATCC 29213 [10] (24 h); 20 mg/mL in data set [11] (S. epidermidis ATCC 35984 established biofilm, 24 h).
Consider `CC(=O)N[C@@H](CS)C(=O)O` [NAC, N-Acetyl-cysteine, reference compound], for which the minimum inhibitory concentration (MIC) with E. coli ATCC 8739 [1] was 5000 µg/mL (≈ 30.6 mM); with P. aeruginosa ATCC 9027 [2], 5000 µg/mL (≈ 30.6 mM); in the data set on S. aureus ATCC 29213 [3], 5000 µg/mL (≈ 30.6 mM); in data set [4] it was 5000 µg/mL (≈ 30.6 mM); in the data set on C. albicans ATCC 10231 [5] it was 20000 µg/mL (≈ 123 mM). For the same molecule, the MBC in the data set on E. coli ATCC 8739 [1] stood at 5000 µg/mL (≈ 30.6 mM); with P. aeruginosa ATCC 9027 [2], 5000 µg/mL (≈ 30.6 mM); in the data set with S. aureus ATCC 29213 [3], 20000 µg/mL (≈ 123 mM); in data set [4] it was 5000 µg/mL (≈ 30.6 mM). The MFC in the data set on C. albicans ATCC 10231 [5] came to 80000 µg/mL (≈ 490 mM). The “MIC and MBC values (range over strains)” value in data set [6] (Gram positive and Gram negative tested bacteria) lay within 5000 to 20000 µg/mL.
In the case of `Cc1ccc(C(C)C)cc1OC(=O)[C@@H]1CSCN1` [codrug 8, TFA·TCA-CAR], the MIC with E. coli ATCC 8739 [1] worked out at 5000 µg/mL; with P. aeruginosa ATCC 9027 [2], 10000 µg/mL; in the data set on S. aureus ATCC 29213 [3], 5000 µg/mL; in data set [4], 2500 µg/mL; with C. albicans ATCC 10231 [5], 600 µg/mL. For the same molecule, the MBC with E. coli ATCC 8739 [1] amounted to 5000 µg/mL; with P. aeruginosa ATCC 9027 [2], 10000 µg/mL; in the data set on S. aureus ATCC 29213 [3] it was 10000 µg/mL; in [4] it was 5000 µg/mL. In addition, in the data set on C. albicans ATCC 10231 [5], the MFC came to 600 µg/mL. The molecule also displayed a hemolysis at 1 h in the data set “Hemolytic activity” of more than 50%. Further, the “concentration at which hemolytic activity is over 50%” value in data set [12] was 3000 µg/mL.
Consider `C#CCSC[C@H](NC(C)=O)C(=O)Oc1cc(C(C)C)ccc1C` [codrug 9, N-Ac-Cys(Propargyl)-CAR], for which the MIC amounted to 10000 µg/mL (≈ 30 mM) with E. coli ATCC 8739 [1]; 10000 µg/mL (≈ 30 mM) in the data set with P. aeruginosa ATCC 9027 [2]; 10000 µg/mL (≈ 30 mM) with S. aureus ATCC 29213 [3]; 5000 µg/mL (≈ 15 mM) in [4]; 1250 µg/mL (≈ 3.75 mM) with C. albicans ATCC 10231 [5]. Moreover, the MBC (in the data set on E. coli ATCC 8739 [1]; in the data set with P. aeruginosa ATCC 9027 [2]; in the data set with S. aureus ATCC 29213 [3]; in data set [4]) was 10000 µg/mL (≈ 30 mM) each time. The MFC in the data set with C. albicans ATCC 10231 [5] worked out at 2500 µg/mL (≈ 7.5 mM). For the same molecule, the hemolysis at 1 h in “Hemolytic activity” was more than 50%. For the same molecule, the “concentration at which hemolytic activity is over 50%” value in [12] worked out at 10000 µg/mL.
